This is an account of results in US6444685B1, “N-(4-sulfonylaryl)Cyclylamine 2-hydroxyethylamines as beta-3 adrenergic receptor agonists” (Wyeth, priority 2000, dated 2002).

Data set [1] addresses T1, human β3 adrenergic receptor (Homo sapiens, UniProt P13945).
T1 construct: Full length β3 AR clones (402 amino acids) containing the last 6 amino acids of hβ3— AR are prepared; expressed in transfected cells; host or cells: CHO cells
Kind of data set: cAMP accumulation (SPA) in CHO cells transfected with human β3 adrenergic receptor. The format is cell-based. Particulars: for pEC50: CHO cells expressing human β3-AR, cAMP, 30 min incubation, 10^−9 M to 10^−5 M, read-out: beta-3 EC50; for beta-3 (IA) maximal response relative to isoproterenol: IA = % activity compound / % activity isoproterenol at 10^−5 M, CHO human β3 cells. The method, boiled down: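 CHO cells expressing human β3-AR (70–110 fmol/mg protein) treated with compound at 10^−9 to 10^−5 M in DMEM with 250 μM IBMX and 1 mM ascorbic acid, 30 min, 37 °C. cAMP measured by SPA; EC50 derived, and intrinsic activity expressed relative to the maximal response of 10^−5 M isoproterenol.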

For data set [2], the target named is T2, human β2-adrenergic receptor (Homo sapiens, UniProt P07550).
T2 construct: expressed in transfected cells; host or cells: CHO cells
T2 sequence (P07550 whole entry): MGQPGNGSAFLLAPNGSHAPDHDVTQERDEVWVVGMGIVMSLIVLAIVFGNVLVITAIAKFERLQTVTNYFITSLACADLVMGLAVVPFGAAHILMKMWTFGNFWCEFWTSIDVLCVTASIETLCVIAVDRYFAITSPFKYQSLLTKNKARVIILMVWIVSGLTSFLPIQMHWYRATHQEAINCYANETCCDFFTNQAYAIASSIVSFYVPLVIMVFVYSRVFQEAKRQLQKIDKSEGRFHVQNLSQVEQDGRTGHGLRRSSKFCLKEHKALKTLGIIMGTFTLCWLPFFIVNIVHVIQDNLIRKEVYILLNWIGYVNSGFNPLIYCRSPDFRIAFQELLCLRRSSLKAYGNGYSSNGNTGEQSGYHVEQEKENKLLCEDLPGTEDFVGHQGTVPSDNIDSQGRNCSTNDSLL
Put plainly: cAMP accumulation (SPA) in CHO cells transfected with human β2 adrenergic receptor. The format is cell-based. Particulars: for pEC50: CHO cells transfected with human β2-AR, cAMP, 15 min incubation, 10^−8 to 10^−4 M, read-out: beta-2 EC50; for beta-2 (IA) maximal response relative to isoproterenol: IA = % activity compound / % activity isoproterenol at 10^−5 M, CHO human β2 cells. Summed up:
(§1)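 CHO cell clones expressing 70–110 fmol/mg protein of receptor were pre-incubated 30 min at 37 °C, then treated 15 min at 37 °C with compound (10^−8 to 10^−4 M) in DMEM with 250 μM IBMX and 1 mM ascorbic acid. cAMP was read by SPA after acid stop. EC50 and IA were expressed relative to maximal 10^−5 M isoproterenol response.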

Data set [3] addresses T3, human β1-adrenergic receptor (Homo sapiens, UniProt P08588).
T3 construct: expressed in transfected cells; host or cells: CHO cells
Kind of data set: cAMP accumulation (SPA) in CHO cells transfected with human β1 adrenergic receptor. The format is cell-based. Particulars: for pEC50: CHO cells transfected with human β1-AR, cAMP, 15 min incubation, 10^−8 to 10^−4 M, read-out: beta-1 EC50; for beta-1 (IA) maximal response relative to isoproterenol: IA = % activity compound / % activity isoproterenol at 10^−5 M, CHO human β1 cells. The method, boiled down:
as §1

pEC50: −log10 of the molar value.

T1 sequence (P13945 whole entry): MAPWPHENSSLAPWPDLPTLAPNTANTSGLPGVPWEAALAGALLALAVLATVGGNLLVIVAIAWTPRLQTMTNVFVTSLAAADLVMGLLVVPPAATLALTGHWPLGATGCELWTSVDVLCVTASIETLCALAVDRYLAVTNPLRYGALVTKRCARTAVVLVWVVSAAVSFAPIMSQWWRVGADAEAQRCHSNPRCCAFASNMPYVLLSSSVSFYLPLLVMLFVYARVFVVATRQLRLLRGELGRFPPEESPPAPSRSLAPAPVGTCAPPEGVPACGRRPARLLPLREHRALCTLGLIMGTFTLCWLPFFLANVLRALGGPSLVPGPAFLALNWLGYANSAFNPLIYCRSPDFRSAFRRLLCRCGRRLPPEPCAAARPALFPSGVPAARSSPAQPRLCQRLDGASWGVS
T3 sequence (P08588 whole entry): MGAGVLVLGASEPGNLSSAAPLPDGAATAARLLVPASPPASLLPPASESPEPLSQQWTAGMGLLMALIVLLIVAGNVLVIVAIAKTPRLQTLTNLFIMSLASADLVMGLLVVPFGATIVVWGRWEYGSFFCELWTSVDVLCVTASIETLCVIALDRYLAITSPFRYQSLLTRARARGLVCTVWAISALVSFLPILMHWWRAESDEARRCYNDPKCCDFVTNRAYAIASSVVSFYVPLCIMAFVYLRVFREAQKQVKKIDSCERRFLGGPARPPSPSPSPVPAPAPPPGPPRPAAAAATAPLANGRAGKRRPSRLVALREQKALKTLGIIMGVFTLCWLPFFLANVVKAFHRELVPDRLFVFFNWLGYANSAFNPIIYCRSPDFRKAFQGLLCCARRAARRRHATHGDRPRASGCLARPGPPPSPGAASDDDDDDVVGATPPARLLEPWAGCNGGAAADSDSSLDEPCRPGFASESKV

For `CS(=O)(=O)Nc1cc([C@@H](O)CNC2CCN(c3ccc(S(=O)(=O)N4CCC[C@@H]4C(=O)OCc4ccccc4)cc3)CC2)ccc1O` [Example 21, (2R)-1-(4-{4-[(2R)-2-Hydroxy-2-(4-hydroxy-3-methanesulfonylamino-phenyl)-ethylamino]-piperidin-1-yl}-benzenesulfonyl)-pyrrolidine-2-carboxylic Acid Benzyl Ester], the melting point lay in the range of 62 to 69 °C. In data set [1], the negative-log EC50 (pEC50) is 9.00 and the “beta-3 (IA) maximal response relative to isoproterenol” value is recorded as “(1)”. Besides, in data set [2], the pEC50 was 6.19 and the “beta-2 (IA) maximal response relative to isoproterenol” value is “(0.82)”. In addition, in data set [3], the negative logarithm of the EC50 (pEC50) is 7.22 and the “beta-1 (IA) maximal response relative to isoproterenol” value was “(0.88)”.

`CS(=O)(=O)Nc1cc([C@@H](O)CNC2CCN(c3ccc(S(=O)(=O)N4CCC[C@H]4C(=O)OCc4ccccc4)cc3)CC2)ccc1O` [Example 22, (2S)-1-(4-{4-[(2R)-2-Hydroxy-2-(4-hydroxy-3-methanesulfonylamino-phenyl)-ethylamino]-piperidin-1-yl}-benzenesulfonyl)-pyrrolidine-2-carboxylic Acid Benzyl Ester] yielded a melting point of 65 to 71 °C. Also, in data set [1], the negative logarithm of the EC50 (pEC50) is 8.70 and the “beta-3 (IA) maximal response relative to isoproterenol” value was “(1)”. Further, in data set [2], the negative-log EC50 (pEC50) is 7.40 and the “beta-2 (IA) maximal response relative to isoproterenol” value is on record as “(0.63)”. Besides, in data set [3], the negative logarithm of the EC50 (pEC50) is 6.70 and the “beta-1 (IA) maximal response relative to isoproterenol” value is “(1.08)”.

`CCCCN(CC(=O)OCC)S(=O)(=O)c1ccc(N2CCC(NC[C@H](O)c3ccc(O)c(NS(C)(=O)=O)c3)CC2)cc1` [Example 23, [Butyl-(4-{4-[(2R)-2-hydroxy-2-(4-hydroxy-3-methanesulfonylamino-phenyl)-ethylamino]-piperidin-1-yl}-benzenesulfonyl)-amino]-acetic Acid Ethyl Ester] gave a melting point of 94 to 95 °C. For the same compound, in data set [1], the pEC50 is 7.80 and the “beta-3 (IA) maximal response relative to isoproterenol” value is “(1)”. In data set [2], the negative-log EC50 (pEC50) was 5.78 and the “beta-2 (IA) maximal response relative to isoproterenol” value was “(0.89)”. Moreover, in data set [3], the pEC50 is 5.88 and the “beta-1 (IA) maximal response relative to isoproterenol” value is “(0.68)”.

On to `CS(=O)(=O)Nc1cc([C@@H](O)CNC2CCN(c3ccc(S(=O)(=O)NCCO)cc3)CC2)ccc1O` [Example 24, N-(2-Hydroxyethyl)-4-{4-[(2R)-2-hydroxy-2-(4-hydroxy-3-methanesulfonylamino-phenyl)-ethylamino]-piperidin-1-yl)-benzenesulfonamide], for which the melting point lay in the range of 78 to 81 °C. In addition, in data set [1], the negative logarithm of the EC50 (pEC50) is 7.48 and the “beta-3 (IA) maximal response relative to isoproterenol” value is “(0.88)”. Also, in data set [2], the negative-log EC50 (pEC50) is 6.00 and the “beta-2 (IA) maximal response relative to isoproterenol” value was “(0.68)”. For the same compound, in data set [3], the pEC50 was 6.00 and the “beta-1 (IA) maximal response relative to isoproterenol” value is given as “(0.35)”.

Turning to `Cc1ccc(S(=O)(=O)c2ccc(N3CCC(NCC(O)c4ccc(O)c(NS(C)(=O)=O)c4)CC3)cc2)cc1` (stereo not shown) [Example 45, N-[2-Hydroxy-5-(1-hydroxy-2-{1-[4-(toluene-4-sulfonyl)-phenyl]-piperidin-4-ylamino}-ethyl)-phenyl]-methanesulfonamide], the melting point lay within 115 to 118 °C. Further, in data set [1], the pEC50 is 9.00 and the “beta-3 (IA) maximal response relative to isoproterenol” value is listed as “(1)”. For the same compound, in data set [2], the pEC50 is 6.15 and the “beta-2 (IA) maximal response relative to isoproterenol” value is recorded as “(0.63)”. In data set [3], the pEC50 was 7.70 and the “beta-1 (IA) maximal response relative to isoproterenol” value is listed as “(0.74)”.

`CC#CCC(CC#CC)(C(=O)OC(C)(C)C)S(=O)(=O)c1ccc(N2CCC(NC[C@H](O)c3ccc(O)c(NS(C)(=O)=O)c3)CC2)cc1` [Example 47, 2-(2-Butynyl)-2-[(4-{4-[((2R)-2-hydroxy-2-{4-hydroxy-3-[(methylsulfonyl)amino]-phenyl}ethyl)amino]-1-piperidinyl}phenyl)sulfonyl]-4-hexynoicacid tert-Butyl Ester]: the melting point was in the range of 93 to 95 °C. For the same compound, in data set [1], the pEC50 is 8.22 and the “beta-3 (IA) maximal response relative to isoproterenol” value is recorded as “(0.93)”. For the same compound, in data set [2], the negative logarithm of the EC50 (pEC50) was 5.49 and the “beta-2 (IA) maximal response relative to isoproterenol” value is “(0.46)”. In data set [3], the pEC50 was 6.00 and the “beta-1 (IA) maximal response relative to isoproterenol” value is listed as “(0.47)”.

Consider `CC#CCC(CC#CC)(C(=O)O)S(=O)(=O)c1ccc(N2CCC(NC[C@H](O)c3ccc(O)c(NS(C)(=O)=O)c3)CC2)cc1` [Example 48, 2-(2-Butynyl)-2-[(4-{4-[((2R)-2-hydroxy-2-{4-hydroxy-3-[(methylsulfonyl)amino]phenyl}ethyl)amino]-1-piperidinyl}phenyl)sulfonyl]-4-hexynoicacid], for which the melting point fell in the range of 175 to 177 °C. For the same compound, in data set [1], the pEC50 is 6.23 and the “beta-3 (IA) maximal response relative to isoproterenol” value is reported as “(1)”. Moreover, in data set [2], the pEC50 is 5.00 and the “beta-2 (IA) maximal response relative to isoproterenol” value was “(0.54)”. For the same compound, in data set [3], the negative-log EC50 (pEC50) is 5.00 and the “beta-1 (IA) maximal response relative to isoproterenol” value is on record as “(0.26)”.

As to `CS(=O)(=O)Nc1cc([C@@H](O)CNC2CCN(c3ccc(S(=O)(=O)N4CC(=O)NC4=O)cc3)CC2)ccc1O` [Example 50, N-[5-((1R)-2-{1-[4-(2,4-Dioxo-imidazolidine-1-sulfonyl)-phenyl]piperidin-4-ylamino}-1-hydroxy-ethyl)-2-hydroxy-phenyl]-methanesulfonamide], the melting point is 200 to 202 °C. For the same compound, in data set [1], the pEC50 is 8.00 and the “beta-3 (IA) maximal response relative to isoproterenol” value is “(1)”. In addition, in data set [2], the pEC50 is 5.15 and the “beta-2 (IA) maximal response relative to isoproterenol” value is given as “(0.35)”. Moreover, in data set [3], the negative-log EC50 (pEC50) is 5.59 and the “beta-1 (IA) maximal response relative to isoproterenol” value is listed as “(0.72)”.

The compound `CC(C)(C)OC(=O)CNS(=O)(=O)c1ccc(N2CCC(NC[C@H](O)c3ccc(O)c(NS(C)(=O)=O)c3)CC2)cc1` [Example 52, tert-Butyl 2-{[(4-{4-[((2R)-2-hydroxy-2-{4-hydroxy-3-[(methylsulfonyl)amino]-phenyl}ethyl)amino]-1-piperidinyl}phenyl)sulfonyl]amino}acetate] displayed a melting point of 113 to 115 °C. Moreover, in data set [1], the negative-log EC50 (pEC50) is 8.22 and the “beta-3 (IA) maximal response relative to isoproterenol” value is reported as “(1)”. In addition, in data set [2], the pEC50 was 6.32 and the “beta-2 (IA) maximal response relative to isoproterenol” value is given as “(0.65)”. For the same compound, in data set [3], the pEC50 was 6.02 and the “beta-1 (IA) maximal response relative to isoproterenol” value is reported as “(0.48)”.

`CC(C)(C)OC(=O)CN(CC(=O)OC(C)(C)C)S(=O)(=O)c1ccc(N2CCC(NC[C@H](O)c3ccc(O)c(NS(C)(=O)=O)c3)CC2)cc1` [Example 54, tert-Butyl 2-{[2-(tert-butoxy)-2-oxoethyl][(4-{4-[((2R)-2-hydroxy-2-{4-hydroxy-3-[(methylsulfonyl)amino]phenyl}ethyl)amino]-1-piperidinyl}-phenyl)sulfonyl]amino}acetate] yielded a melting point of 164 to 166 °C. For the same compound, in data set [1], the negative-log EC50 (pEC50) was 7.85 and the “beta-3 (IA) maximal response relative to isoproterenol” value is recorded as “(1.2)”. Also, in data set [2], the negative-log EC50 (pEC50) is 4.92 and the “beta-2 (IA) maximal response relative to isoproterenol” value was “(0.42)”. Besides, in data set [3], the negative-log EC50 (pEC50) is 5.64 and the “beta-1 (IA) maximal response relative to isoproterenol” value is “(0.33)”.
